Laboratory results: patent US20240398771A1, “TREATMENT OF SCLERODERMA AND RAYNAUD'S SYNDROME” (Aisa Pharma, Inc., priority 2023, published 2024)
“Also recorded” adds a separate entry of the source.

Experiments:
participants with SSc-RP [1] = experiment: Adverse events and serious adverse events (safety, tolerability); type: in vivo
Source text: In this study, AEs and SAEs will be reported for all participants from the time of randomization until the completion of the Follow-up/EOS visit. Adverse events that are ongoing at the EOS visit will be marked as Not Recovered/Not resolved on the AE eCRF page.
An AE is any event, side effect, or other untoward medical occurrence that occurs in conjunction with the use of a medicinal product in humans, whether or not considered to have a causal relationship to this treatment. An AE can, therefore, be any unfavorable and unintended sign (that could include a clinically significant abnormal laboratory finding), symptom, or disease temporally associated with the use of a medicinal product, whether or not considered related to the medicinal product.
Severity of AEs will be graded by the Investigator as one of: • Mild (Grade 1): A type of AE that is usually transient and may require only minimal treatment or therapeutic intervention.
An SAE is an AE occurring during any study phase (i.e. baseline, treatment, washout, or follow-up), and at any dose of the study drug (active or placebo), that fulfills one or more of the following: • Results in death • It is immediately life-threatening • It requires in participant hospitalization or prolongation of existing hospitalization • It results in persistent or significant disability or incapacity • Results in a congenital abnormality or birth defect • It is an important medical event that may jeopardize the participant or may require medical intervention to prevent one of the outcomes listed above.
Adverse events will be coded using the most current version of the MedDRA® Version 22.0 or higher. The analysis of AEs will be based on the concept of treatment emergent AEs. Treatment emergent AEs will be tabulated by treatment group and will include the number of participants for whom the event occurred, the severity, and relationship to study drug. Treatment emergent AEs (TEAEs) leading to discontinuation and SAEs with onset after the start of study drug will also be summarized.
Treatment-emergent AEs (TEAEs) are defined as AEs that occur or worsen after the dose of study drug. If the timing of the start of an AE could not be determined unambiguously from the start or end dates provided, it will be assumed to be a TEAE. An AE is considered related if the relationship to either of the study drug has been indicated as possibly or probably or definite related by the investigator. An AE leading to study withdrawal is defined as an AE that cause a subject early terminated from the study. AEs will be identified as emerging in the following parts: • TEAEs for Part A will be those that started during Part A (i.e., from the first dose in Part A to end of follow up of Part A) • TEAEs for Part B will be those that started during Part B (i.e., from the first dose in Part B to end of follow-up of Part B).
• Incidence of treatment emergent adverse events (AEs) and serious adverse events (SAEs), including clinically significant vital signs. For Part A safety will be assessed from the time of randomization until 7 days following the last protocol dose. For Part B, participants will be followed for 28 days from the last study dose. • Serious adverse events will be monitored by a DSMB (Part A) and Drug Safety Officer (Part B) on an ongoing basis throughout the study. • Adverse events will be coded using the MedDRA and summarized by SOC, PT, and treatment group.

participants with SSc-RP [2] = experiment: Average daily Raynaud's Condition Score (RCS); type: in vivo, human; set-up: key to Average Daily RCS: Baseline, Mean / Average Daily RCS: Baseline, Median: daily RCS on VAS 0-10 cm scale; conditions: ITT Part A
Source text: The relevant metrics measured by this tool daily are: • Study medication • SSc-RP symptoms (Reporting an attack including duration of attack) • Severity of the attack considering all symptoms of the attack e.g. tingling, numbness, pain, color changes (VAS 0-10 cm scale) • Participant's location at the time of the attack (inside home/outside home) • Selecting symptoms experienced during the attack (tingling, numbness, pain, color changes, other) • Pain rating during the attack (11-point Likert scale) • The RCS based on how much difficulty participants had with Raynaud's today, how many attacks the participant had, and how long they lasted. Participants will also be asked to consider how much pain, numbness, or other symptoms the Raynaud's caused in fingers (including painful sores), and how much the Raynaud's alone affected the use of hands today (VAS 0-10 cm scale).
The RCS is based on how much difficulty participants had with Raynaud's today, how many attacks the participant had, and how long they lasted. In addition participants were and will be asked to consider how much pain, numbness, or other symptoms the Raynaud's caused in fingers (including painful sores), and how much the Raynaud's along affected the use of hand today (VAS 0-10 cm scale).
The absolute change in average daily RCS from baseline to the end of each dosing period was and will be a secondary outcome variable. The sponsor-developed participant-informed diary has been and will be used to record data. The average daily RCS is defined as the total RCS divided by the number of days with available diary data of each dosing period. Total RCS during screening period divided by the number of days with available data will be used as baseline for the analysis of all periods. If there are multiple daily RCS scores, the latest daily RCS will be used. The variable will be calculated similar to frequency data as before.

[3] = Cilnidipine 10 mg, excluding outliers
[4] = Cilnidipine 20 mg, excluding outliers
[5] = Pooled Cilnidipine 20 mg and Cilnidipine 20 mg + Tadalafil 5 mg, excluding outliers
[6] = Pooled Cilnidipine, excluding outliers

CN1CC(=O)N2[C@H](c3ccc4c(c3)OCO4)c3[nH]c4ccccc4c3C[C@@H]2C1=O [Tadalafil]
Adverse Events (AEs): worst AE by group (participants with SSc-RP [1]; tadalafil monotherapy group): Worst AE in tadalafil
Average Daily RCS: Baseline, Mean (participants with SSc-RP [2]; Tadalafil 5 mg): 7.72
Average Daily RCS: Baseline, Median (participants with SSc-RP [2]; Tadalafil 5 mg): 7.72

COCCOC(=O)C1=C(C)NC(C)=C(C(=O)OC/C=C/c2ccccc2)C1c1cccc([N+](=O)[O-])c1 (stereo not drawn) [Cilnidipine, 1,4-dihydro-2,6-dimethyl,4-(3-nitrophenyl)-3,5-pyridinedicarboxylic acid 2-methoxyethyl (2 E)-3-phenyl-2-propenyl ester]
Safety: withdrawals (participants with SSc-RP [1]; Cilnidipine 20 mg (n = 8)): 1 withdrawal
Safety: number of AE (participants with SSc-RP [1]; Cilnidipine 20 mg (n = 8), HA-mild): 1AE (HA-mild;
severity grade of adverse events (participants with SSc-RP [1]; Example 4): only Grade 1 Adverse Events (AEs) were reported; also recorded: only mild (Grade 1) adverse events occurred
tolerability (participants with SSc-RP [1]; Example 4, 10 mg and 20 mg, alone or in combination with tadalafil): well tolerated; also recorded: good tolerability
overall adverse event rate / incidence of Adverse Events (participants with SSc-RP [1]; Example 4, all patients who received any dose of cilnidipine (n=17)): 17%
Safety: withdrawals (participants with SSc-RP [1]; Pooled Cilnidipine (n = 9)): T); no withdrawals
Safety: number of AE (participants with SSc-RP [1]; Pooled Cilnidipine (n = 9), AE in combo with T): 1AE (in combo with
Average Daily RCS: Baseline, Mean (participants with SSc-RP [2]; [3]): 2.74
Average Daily RCS: Baseline, Median (participants with SSc-RP [2]; [3]): 2.74
Average Daily RCS (dosing period), Mean (participants with SSc-RP [2]; [4]): 2.90
Average Daily RCS (dosing period), Median (participants with SSc-RP [2]; [4]): 2.90
Average Daily RCS: Baseline, Median (participants with SSc-RP [2]; [4]): 3.35
Average Daily RCS: Baseline, Mean (participants with SSc-RP [2]; Pooled Cilnidipine 10 mg and Cilnidipine 10 mg + Tadalafil 5 mg, excluding outliers): 4.07
Average Daily RCS (dosing period), Mean (participants with SSc-RP [2]; [5]): 3.60
Average Daily RCS: Baseline, Mean (participants with SSc-RP [2]; [5]): 4.68
Average Daily RCS: Baseline, Median (participants with SSc-RP [2]; [5]): 3.74
Average Daily RCS: Baseline, Mean (participants with SSc-RP [2]; [6]): 3.15
Average Daily RCS: Baseline, Median (participants with SSc-RP [2]; [6]): 2.80
